In test [1] the target is isolated recombinant JAK2 kinase domain (Homo sapiens (Human), UniProt O60674). The test is described as follows: JAK2 enzyme assay (Caliper LabChip, Ki). The conditions noted are these: isolated recombinant JAK2 kinase domain, 0.2 nM enzyme, ATP 25 μM. It is filed as biochemical.
Test [2] deals with isolated recombinant JAK1 kinase domain (Homo sapiens (Human), UniProt P23458). Description: JAK1 enzyme assay (Caliper LabChip, Ki). It is filed as biochemical. The conditions noted are these: isolated recombinant JAK1 kinase domain, 1.5 nM enzyme, ATP 25 μM.
isolated recombinant JAK1 kinase domain, sequence (P23458 875-1153): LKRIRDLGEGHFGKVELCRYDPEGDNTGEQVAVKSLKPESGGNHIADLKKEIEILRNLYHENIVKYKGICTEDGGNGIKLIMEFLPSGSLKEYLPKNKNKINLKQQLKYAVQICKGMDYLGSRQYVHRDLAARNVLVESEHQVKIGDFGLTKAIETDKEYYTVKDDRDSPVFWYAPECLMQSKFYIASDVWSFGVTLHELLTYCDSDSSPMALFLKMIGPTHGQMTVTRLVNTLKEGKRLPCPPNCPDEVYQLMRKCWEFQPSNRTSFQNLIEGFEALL

Results on 21 compounds are retold here after patent publication US10189836B2, “Therapeutic compounds, compositions and methods of use thereof” (Genentech, Inc., priority 2015, dated 2019).

Each structure is given as a SMILES string. pKi: −log10 of the molar value.

isolated recombinant JAK2 kinase domain, sequence (O60674 849-1124): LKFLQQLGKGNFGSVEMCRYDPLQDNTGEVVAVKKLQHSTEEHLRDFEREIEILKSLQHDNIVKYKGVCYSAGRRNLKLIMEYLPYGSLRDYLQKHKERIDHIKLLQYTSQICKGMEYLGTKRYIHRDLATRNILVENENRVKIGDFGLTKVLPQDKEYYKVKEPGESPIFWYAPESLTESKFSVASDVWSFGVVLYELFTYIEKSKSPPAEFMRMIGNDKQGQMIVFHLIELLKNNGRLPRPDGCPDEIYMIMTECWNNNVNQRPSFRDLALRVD

One may read the pKi as the negative decadic logarithm of the Ki, by convention in mol/L. Turning to `CN1CCN(C(=O)Cn2cc(Nc3nc4c(N5CC6CCC(C5)N6S(=O)(=O)c5ccc(Cl)cc5F)cccn4n3)cn2)CC1` [Example 136, 2-[4-[[8-[8-(4-chloro-2-fluoro-phenyl)sulfonyl-3,8-diazabicyclo[3.2.1]octan-3-yl]-[1,2,4]triazolo[1,5-a]pyridin-2-yl]amino]pyrazol-1-yl]-1-(4-methylpiperazin-1-yl)ethanone], the pKi in test [1] is 8.21; in test [2], 8.70.
The like results for `CN1CCN(C(=O)Cn2cc(Nc3nc4c(N5CC6CCC(C5)N6Cc5ccccc5F)cccn4n3)cn2)CC1` [Example 137, 2-(4-((8-((1R,5 S)-8-(2-fluorobenzyl)-3,8-diazabicyclo[3.2.1]octan-3-yl)-[1,2,4]triazolo[1,5-a]pyridin-2-yl)amino)-1H-pyrazol-1l-yl)-1-(4-methylpiperazin-1-yl)ethan-1-one] were, in that order, 9.15 and 9.00.
In the case of `Cc1ncc(S(=O)(=O)N2C3CCC2CN(c2cccn4nc(Nc5cnn(CC(=O)N6CCN(C)CC6)c5)nc24)C3)s1` [Example 138, 1-(4-methylpiperazin-1-yl)-2-[4-[[8-[8-(2-methylthiazol-5-yl)sulfonyl-3,8-diazabicyclo[3.2.1]octan-3-yl]-[1,2,4]triazolo[1,5-a]pyridin-2-yl]amino]pyrazol-1-yl]ethanone], the pKi in test [1] was 9.10; in test [2] it was 9.15.
On to `Cc1cc(S(=O)(=O)N2C3CCC2CN(c2cccn4nc(Nc5cnn(CC(=O)N6CCN(C)CC6)c5)nc24)C3)sn1` [Example 139, 2-[4-[[8-[8-(3-yl)sulfonyl-3,8-diazabicyclo[3.2.1]octan-3-yl]-[1,2,4]triazolo[1,5-a]pyridin-2-yl]amino]pyrazol-1-yl]-1-(4-methylpiperazin-1-yl)ethanone], for which the negative logarithm of the Ki (pKi) in test [1] was 9.22; in test [2] it was 9.10.
Regarding `CN1CCN(C(=O)Cn2cc(Nc3nc4c(N5CC6CCC(C5)N6C(=O)c5ccccc5C#N)cccn4n3)cn2)CC1` [Example 140, 2-[3-[2-[[1-[2-(4-methylpiperazin-1-yl)-2-oxo-ethyl]pyrazol-4-yl]amino]-[1,2,4]triazolo[1,5-a]pyridin-8-yl]-3,8-diazabicyclo[3.2.1]octane-8-carbonyl]benzonitrile], the figures for the pKi in test [1] and in test [2] were 9.10 and 9.40, respectively.
In the case of `CN1CCN(C(=O)Cn2cc(Nc3nc4c(N5CC6CCC(C5)N6C(=O)N5CC(O)(C(F)(F)F)C5)cccn4n3)cn2)CC1` [Example 141, 2-[4-[[8-[8-[3-hydroxy-3-(trifluoromethyl)azetidine-1-carbonyl]-3,8-diazabicyclo[3.2.1]octan-3-yl]-[1,2,4]triazolo[1,5-a]pyridin-2-yl]amino]pyrazol-1-yl]-1-(4-methylpiperazin-1-yl)ethanone], the pKi in test [1] is 9.52; in test [2], 9.70.
Take `CN1CCN(C(=O)Cn2cc(Nc3nc4c(N5C[C@H]6CC[C@@H](C5)[C@H]6OCc5ccccc5C#N)cccn4n3)cn2)CC1` [Example 142, 2-[[rac-(1S,5R)-3-[2-[[1-[2-(4-methylpiperazin-1-yl)-2-oxo-ethyl]pyrazol-4-yl]amino]-[1,2,4]triazolo[1,5-a]pyridin-8-yl]-3-azabicyclo[3.2.1]octan-8-yl]oxymethyl]benzonitrile]: the results for the pKi in test [1] and in test [2] were 8.77 and 9.15, respectively.
Turning to `CN1CCN(C(=O)Cn2cc(Nc3nc4c(N5CC6CCC(C5)N6S(=O)(=O)c5cccc(C#N)c5)cccn4n3)cn2)CC1` [Example 143, 3-[[3-[2-[[1-[2-(4-methylpiperazin-1-yl)-2-oxo-ethyl]pyraol-4-yl]amino]-[1,2,4]triazolo[1,5-a]pyridin-8-yl]-3,8-diazabicyclo[3.2.1]octan-8-yl]sulfonyl]benzonitrile], the results for the pKi in test [1] and in test [2] were 8.96 and 9.30, respectively.
`COC1(C(F)(F)F)CN(C(=O)N2C3CCC2CN(c2cccn4nc(Nc5cnn(CC(=O)N6CCN(C)CC6)c5)nc24)C3)C1` [Example 146, 2-[4-[[8-[8-[3-methoxy-3-(trifluoromethyl)azetidine-1-carbonyl]-3,8-diazabicyclo[3.2.1]octan-3-yl]-[1,2,4]triazolo[1,5-a]pyridin-2-yl]amino]pyrazol-1-yl]-1-(4-methylpiperazin-1-yl)ethanone]: the pKi in test [1] and in test [2] was 8.21 in each case.
On to `CN1CCN(C(=O)Cn2cc(Nc3nc4c(N5CC6CCC(C5)N6S(=O)(=O)c5ccccc5C#N)cccn4n3)cn2)CC1` [Example 147, 2-[[3-[2-[[1-[2-(4-methylpiperazin-1-yl)-2-oxo-ethyl]pyrazol-4-yl]amino]-[1,2,4]triazolo[1,5-a]pyridin-8-yl]-3,8-diazabicyclo[3.2.1]octan-8-yl]sulfonyl]benzonitrile], for which the pKi in test [1] is 9.52; in test [2], 9.40.
The like results for `CN1CCN(C(=O)Cn2cc(Nc3nc4c(N5CC6CCC(C5)N6S(=O)(=O)c5ccccc5C(F)(F)F)cccn4n3)cn2)CC1` [Example 148, 1-(4-methylpiperazin-1-yl)-2-[4-[[8-[8-(2-(trifluoromethyl)phenyl]sulfonyl-3,8-diazabicyclo[3.2.1]octan-3-yl]-[1,2,4]triazolo[1,5-a]pyridin-2-yl]amino]pyrazol-1-yl]ethanone] were, in that order, 8.51 and 8.72.
The like results for `CN1CCN(C(=O)Cn2cc(Nc3nc4c(N5CC6CCC(C5)N6S(=O)(=O)c5ccc(C#N)cc5)cccn4n3)cn2)CC1` [Example 149, 4-[3-[2-([1-[2-(4-methylpiperazin-1-yl)-2-oxoethyl]-1H-pyrazol-4-yl]amino)-[1,2,4]triazolo[1,5-a]pyridin-8-yl]-3,8-diazabicyclo[3.2.1]octane-8-sulfonyl]benzonitrile] were, in that order, 8.70 and 8.96.
As to `CN1CCN(C(=O)Cn2cc(Nc3nc4c(N5CC6CCC(C5)N6S(=O)(=O)c5ccccc5F)cccn4n3)cn2)CC1` [Example 150, 2-[4-[[8-[8-(2-fluorophenyl)sulfonyl-3,8-diazabicyclo[3.2.1]octan-3-yl]-[1,2,4]triazolo[1,5-a]pyridin-2-yl]amino]pyrazol-1-yl]-1-(4-methylpiperazin-1-yl)ethanone], the pKi in test [1] is 8.82; in test [2], 9.15.
Consider `O=C(Cn1cc(Nc2nc3c(N4CC5CCC(C4)N5C(=O)CCC(F)(F)F)cccn3n2)cn1)N1CCN(C2CCC2)CC1` [Example 152, 1-[3-[2-[[1-[2-(4-cyclobutylpiperazin-1-yl)-2-oxo-ethyl]pyrazol-4-yl]amino]-[1,2,4]triazolo[1,5-a]pyridin-8-yl]-3,8-diazabicyclo[3.2.1]octan-8-yl]-4,4,4-trifluoro-butan-1-one], for which the pKi in test [1] was 8.77; in test [2] it was 9.22.
Regarding `O=C(Cn1cc(Nc2nc3c(N4CC5CCC(C4)N5C(=O)CCC(F)(F)F)cccn3n2)cn1)N1CCN(C2CCCCC2)CC1` [Example 153, 1-[3-[2-[[1-[2-(4-cyclohexylpiperazin-1-yl)-2-oxo-ethyl]pyrazol-4-yl]amino]-[1,2,4]triazolo[1,5-a]pyridin-8-yl]-3,8-diazabicyclo[3.2.1]octan-8-yl]-4,4,4-trifluoro-butan-1-one], the pKi in test [1] is 9.52; in test [2], 9.70.
As for `CN1CCN(C(=O)Cn2cc(Nc3nc4c(N5CC6CCC(C5)N6C(=O)CC(O)C(F)(F)F)cccn4n3)cn2)CC1` (stereo not drawn) [Example 154, 4,4,4-trifluoro-3-hydroxy-1-[3-[2-[[1-[2-(4-methylpiperazin-1-yl)-2-oxo-ethyl]pyrazol-4-yl]amino]-[1,2,4]triazolo[1,5-a]pyridin-8-yl]-3,8-diazabicyclo[3.2.1]octan-8-yl]butan-1-one], the pKi is 9.05 in test [1] and 9.30 in test [2].
In the case of `CN1CCN(C(=O)Cn2cc(Nc3nc4c(N5CC6CCC(C5)N6S(=O)(=O)c5cccc(F)c5)cccn4n3)cn2)CC1` [Example 156, 2-[4-[[8-[8-(3-fluorophenyl)sulfonyl-3,8-diazabicyclo[3.2.1]octan-3-yl]-[1,2,4]triazolo[1,5-a]pyridin-2-yl]amino]pyrazol-1-yl]-1-(4-methylpiperazin-1-yl)ethanone], the results for the pKi in test [1] and in test [2] were 8.43 and 8.89, respectively.
For `CN1CCN(C(=O)Cn2cc(Nc3nc4c(N5CC6CCC(C5)N6C(=O)c5ccsc5)cccn4n3)cn2)CC1` [Example 157, 1-(4-methylpiperazin-1-yl)-2-[4-[[8-[8-(thiophene-3-carbonyl)-3,8-diazabicyclo[3.2.1]octan-3-yl]-[1,2,4]triazolo[1,5-a]pyridin-2-yl]amino]pyrazol-1-yl]ethanone], the pKi is 8.85 in test [1] and 9.40 in test [2].
On to `CN1CCN(C(=O)Cn2cc(Nc3nc4c(N5CC6CCC(C5)N6S(=O)(=O)Cc5ccccc5F)cccn4n3)cn2)CC1` [Example 158, 2-[4-[[8-[8-[(2-fluorophenyl)methylsulfonyl]-3,8-diazabicyclo[3.2.1]octan-3-yl]-[1,2,4]triazolo[1,5-a]pyridin-2-yl]amino]pyrazol-1-yl]-1-(4-methylpiperazin-1-yl)ethanone], for which the results for the pKi in test [1] and in test [2] were 8.55 and 9.05, respectively.
The like results for `CN1CCN(C(=O)Cn2cc(Nc3nc4c(N5CC6CCC(C5)N6S(=O)(=O)Cc5cccc(F)c5)cccn4n3)cn2)CC1` [Example 159, 2-[4-[[8-[8-[(3-fluorophenyl)methylsulfonyl]-3,8-diazabicyclo[3.2.1]octan-3-yl]-[1,2,4]triazolo[1,5-a]pyridin-2-yl]amino]pyrazol-1-yl]-1-(4-methylpiperazin-1-yl)ethanone] were, in that order, 8.54 and 9.15.
The corresponding values for `CN1CCN(C(=O)Cn2cc(Nc3nc4c(N5CC6CCC(C5)N6S(=O)(=O)Cc5ccc(F)cc5)cccn4n3)cn2)CC1` [Example 160, 2-[4-[[8-[8-[(4-fluorophenyl)methylsulfonyl]-3,8-diazabicyclo[3.2.1]octan-3-yl]-[1,2,4]triazolo[1,5-a]pyridin-2-yl]amino]pyrazol-1-yl]-1-(4-methylpiperazin-1-yl)ethanone] are 9.05 and 9.22.
